# Measured values reported in ChEMBL document CHEMBL3885881, “DrugMatrix”.
# Species: Rattus norvegicus
# Test: DrugMatrix - Regimen: Daily Repeat
# Assay type: toxicity, organism-based, Sprague-Dawley
# Design: regimen Daily Repeat, gender Male, age 6-8 weeks
# Conditions: in vivo, po, route oral GAVAGE, vehicle .5 % CMC; for ABSOLUTE BASOPHIL / ABSOLUTE EOSINOPHIL / ABSOLUTE LYMPHOCYTE / ABSOLUTE MONOCYTE / ABSOLUTE SEGMENTED NEUTROPHIL / BASOPHIL / EOSINOPHIL / ERYTHROCYTE COUNT / HEMATOCRIT / HEMOGLOBIN / LEUKOCYTE COUNT / LYMPHOCYTE / MEAN CORPUSCULAR HEMOGLOBIN / MEAN CORPUSCULAR HEMOGLOBIN CONCENTRATION / MEAN CORPUSCULAR VOLUME / MONOCYTE / NEUTROPHIL / NUCLEATED RED BLOOD CELLS / PLATELET COUNT: tissue Blood; for ALANINE AMINOTRANSFERASE / ALBUMIN / ALKALINE PHOSPHATASE / ASPARTATE AMINOTRANSFERASE / BLOOD UREA NITROGEN / CARBON DIOXIDE / CHLORIDE / CHOLESTEROL / CREATINE PHOSPHOKINASE / CREATININE / GLUCOSE / LACTATE DEHYDROGENASE / LIPASE / PHOSPHORUS / SODIUM / TOTAL BILIRUBIN / TOTAL PROTEIN / URIC ACID: tissue Plasma
# [1] = 54 mg/kg, 72 h, dose level Low, time 3 day
# [2] = 54 mg/kg, 120 h, dose level Low, time 5 day
# [3] = 1200 mg/kg, 72 h, dose level High, time 3 day
# [4] = 1200 mg/kg, 120 h, dose level High, time 5 day
compound,measurement,setting,value
NC(N)=Nc1nc(CSCCC(N)=NS(N)(=O)=O)cs1 [FAMOTIDINE],ABSOLUTE BASOPHIL,[1],0 CELLS/uL
same,ABSOLUTE EOSINOPHIL,[1],169.67 CELLS/uL
same,ABSOLUTE LYMPHOCYTE,[1],13320 CELLS/uL
same,ABSOLUTE MONOCYTE,[1],113.67 CELLS/uL
same,ABSOLUTE SEGMENTED NEUTROPHIL,[1],2530 CELLS/uL
same,BASOPHIL,[1],0%
same,EOSINOPHIL,[1],1%
same,ERYTHROCYTE COUNT,[1],5.11 x10E6/uL
same,HEMATOCRIT,[1],32.47%
same,HEMOGLOBIN,[1],12.1 G/DL
same,LEUKOCYTE COUNT,[1],16.13 x10E3/uL
same,LYMPHOCYTE,[1],81.67%
same,MEAN CORPUSCULAR HEMOGLOBIN,[1],23.73 pg
same,MEAN CORPUSCULAR HEMOGLOBIN CONCENTRATION,[1],37.27 G/DL
same,MEAN CORPUSCULAR VOLUME,[1],63.57 fL
same,MONOCYTE,[1],0.67%
same,NEUTROPHIL,[1],16.67%
same,NUCLEATED RED BLOOD CELLS,[1],0 /100WBC
same,PLATELET COUNT,[1],1110 x10E3/uL
same,ALANINE AMINOTRANSFERASE,[1],57 u/L
same,ALBUMIN,[1],4.17 G/DL
same,ALKALINE PHOSPHATASE,[1],343.67 u/L
same,ASPARTATE AMINOTRANSFERASE,[1],85 u/L
same,BLOOD UREA NITROGEN,[1],17 mg/dL
same,CARBON DIOXIDE,[1],27.33 mmol/L
same,CHLORIDE,[1],106.67 MEQ/L
same,CHOLESTEROL,[1],74.67 mg/dL
same,CREATINE PHOSPHOKINASE,[1],218 u/L
same,CREATININE,[1],0.19 mg/dL
same,GLUCOSE,[1],162 mg/dL
same,LACTATE DEHYDROGENASE,[1],62.33 u/L
same,LIPASE,[1],9 u/L
same,PHOSPHORUS,[1],14.6 mg/dL
same,SODIUM,[1],148.03 MEQ/L
same,TOTAL BILIRUBIN,[1],0.2 mg/dL
same,TOTAL PROTEIN,[1],5.87 G/DL
same,URIC ACID,[1],1.13 mg/dL
same,ABSOLUTE BASOPHIL,[2],0 CELLS/uL
same,ABSOLUTE EOSINOPHIL,[2],121 CELLS/uL
same,ABSOLUTE LYMPHOCYTE,[2],12766.33 CELLS/uL
same,ABSOLUTE MONOCYTE,[2],233 CELLS/uL
same,ABSOLUTE SEGMENTED NEUTROPHIL,[2],713 CELLS/uL
same,BASOPHIL,[2],0%
same,EOSINOPHIL,[2],1%
same,ERYTHROCYTE COUNT,[2],5.42 x10E6/uL
same,HEMATOCRIT,[2],34.9%
same,HEMOGLOBIN,[2],13.43 G/DL
same,LEUKOCYTE COUNT,[2],13.83 x10E3/uL
same,LYMPHOCYTE,[2],92%
same,MEAN CORPUSCULAR HEMOGLOBIN,[2],24.87 pg
same,MEAN CORPUSCULAR HEMOGLOBIN CONCENTRATION,[2],38.5 G/DL
same,MEAN CORPUSCULAR VOLUME,[2],64.63 fL
same,MONOCYTE,[2],1.67%
same,NEUTROPHIL,[2],5.33%
same,NUCLEATED RED BLOOD CELLS,[2],0 /100WBC
same,PLATELET COUNT,[2],1325.67 x10E3/uL
same,ALANINE AMINOTRANSFERASE,[2],55.33 u/L
same,ALBUMIN,[2],4.33 G/DL
same,ALKALINE PHOSPHATASE,[2],326.67 u/L
same,ASPARTATE AMINOTRANSFERASE,[2],90.67 u/L
same,BLOOD UREA NITROGEN,[2],18 mg/dL
same,CARBON DIOXIDE,[2],24.33 mmol/L
same,CHLORIDE,[2],106.33 MEQ/L
same,CHOLESTEROL,[2],62.67 mg/dL
same,CREATINE PHOSPHOKINASE,[2],662.67 u/L
same,CREATININE,[2],0.19 mg/dL
same,GLUCOSE,[2],182.67 mg/dL
same,LACTATE DEHYDROGENASE,[2],190.67 u/L
same,LIPASE,[2],8 u/L
same,PHOSPHORUS,[2],14.57 mg/dL
same,SODIUM,[2],146.63 MEQ/L
same,TOTAL BILIRUBIN,[2],0.2 mg/dL
same,TOTAL PROTEIN,[2],6.07 G/DL
same,URIC ACID,[2],1.6 mg/dL
same,ABSOLUTE BASOPHIL,[3],0 CELLS/uL
same,ABSOLUTE EOSINOPHIL,[3],179 CELLS/uL
same,ABSOLUTE LYMPHOCYTE,[3],9906 CELLS/uL
same,ABSOLUTE MONOCYTE,[3],48.67 CELLS/uL
same,ABSOLUTE SEGMENTED NEUTROPHIL,[3],1366.33 CELLS/uL
same,BASOPHIL,[3],0%
same,EOSINOPHIL,[3],1.67%
same,ERYTHROCYTE COUNT,[3],5.88 x10E6/uL
same,HEMATOCRIT,[3],36.73%
same,HEMOGLOBIN,[3],13.97 G/DL
same,LEUKOCYTE COUNT,[3],11.5 x10E3/uL
same,LYMPHOCYTE,[3],85.33%
same,MEAN CORPUSCULAR HEMOGLOBIN,[3],23.73 pg
same,MEAN CORPUSCULAR HEMOGLOBIN CONCENTRATION,[3],38.03 G/DL
same,MEAN CORPUSCULAR VOLUME,[3],62.5 fL
same,MONOCYTE,[3],0.67%
same,NEUTROPHIL,[3],12.33%
same,NUCLEATED RED BLOOD CELLS,[3],0 /100WBC
same,PLATELET COUNT,[3],1159.67 x10E3/uL
same,ALANINE AMINOTRANSFERASE,[3],56 u/L
same,ALBUMIN,[3],4.43 G/DL
same,ALKALINE PHOSPHATASE,[3],396.33 u/L
same,ASPARTATE AMINOTRANSFERASE,[3],89 u/L
same,BLOOD UREA NITROGEN,[3],16.33 mg/dL
same,CARBON DIOXIDE,[3],26.33 mmol/L
same,CHLORIDE,[3],106.33 MEQ/L
same,CHOLESTEROL,[3],85.33 mg/dL
same,CREATINE PHOSPHOKINASE,[3],213.67 u/L
same,CREATININE,[3],0.2 mg/dL
same,GLUCOSE,[3],152.33 mg/dL
same,LACTATE DEHYDROGENASE,[3],137.33 u/L
same,LIPASE,[3],8.67 u/L
same,PHOSPHORUS,[3],13.77 mg/dL
same,SODIUM,[3],148.03 MEQ/L
same,TOTAL BILIRUBIN,[3],0.27 mg/dL
same,TOTAL PROTEIN,[3],6.4 G/DL
same,URIC ACID,[3],2.37 mg/dL
same,ABSOLUTE BASOPHIL,[4],0 CELLS/uL
same,ABSOLUTE EOSINOPHIL,[4],254 CELLS/uL
same,ABSOLUTE LYMPHOCYTE,[4],15699.67 CELLS/uL
same,ABSOLUTE MONOCYTE,[4],74 CELLS/uL
same,ABSOLUTE SEGMENTED NEUTROPHIL,[4],1405.67 CELLS/uL
same,BASOPHIL,[4],0%
same,EOSINOPHIL,[4],1.33%
same,ERYTHROCYTE COUNT,[4],5.4 x10E6/uL
same,HEMATOCRIT,[4],34.6%
same,HEMOGLOBIN,[4],13.17 G/DL
same,LEUKOCYTE COUNT,[4],17.43 x10E3/uL
same,LYMPHOCYTE,[4],90%
same,MEAN CORPUSCULAR HEMOGLOBIN,[4],24.43 pg
same,MEAN CORPUSCULAR HEMOGLOBIN CONCENTRATION,[4],38.03 G/DL
same,MEAN CORPUSCULAR VOLUME,[4],64.2 fL
same,MONOCYTE,[4],0.33%
same,NEUTROPHIL,[4],8.33%
same,NUCLEATED RED BLOOD CELLS,[4],0 /100WBC
same,PLATELET COUNT,[4],1387 x10E3/uL
same,ALANINE AMINOTRANSFERASE,[4],59 u/L
same,ALBUMIN,[4],4.4 G/DL
same,ALKALINE PHOSPHATASE,[4],383.67 u/L
same,ASPARTATE AMINOTRANSFERASE,[4],87.67 u/L
same,BLOOD UREA NITROGEN,[4],18 mg/dL
same,CARBON DIOXIDE,[4],25.67 mmol/L
same,CHLORIDE,[4],103.67 MEQ/L
same,CHOLESTEROL,[4],59.33 mg/dL
same,CREATINE PHOSPHOKINASE,[4],259.33 u/L
same,CREATININE,[4],0.27 mg/dL
same,GLUCOSE,[4],182 mg/dL
same,LACTATE DEHYDROGENASE,[4],250.33 u/L
same,LIPASE,[4],8.67 u/L
same,PHOSPHORUS,[4],14.07 mg/dL
same,SODIUM,[4],145.8 MEQ/L
same,TOTAL BILIRUBIN,[4],0.17 mg/dL
same,TOTAL PROTEIN,[4],6.3 G/DL
same,URIC ACID,[4],2.17 mg/dL
